Laboratory results reported in ChEMBL document CHEMBL2203104, “Recent advances in antitubercular natural products” (Eur J Med Chem, 2012).
Converted amounts (≈) assume the structure as drawn.

What was measured:
[1] = Inhibition of Mycobacterium tuberculosis RNA polymerase
[2] = tested on: Mycobacterium tuberculosis; experiment: Antimycobacterial activity against Mycobacterium tuberculosis H37Rv; type: functional; details: Mycobacterium tuberculosis, H37Rv; read-out: MIC
Vero = experiment: Cytotoxicity against african green monkey Vero cells; type: cell-based; details: Chlorocebus sabaeus
[3] = Selectivity index, ratio of IC50 for african green monkey Vero cells to MIC for Mycobacterium tuberculosis H37Rv; type: functional
[4] = tested on: Mycobacterium tuberculosis; experiment: Antimycobacterial activity against Mycobacterium tuberculosis 90-221387; type: functional
[5] = tested on: Mycobacterium tuberculosis; experiment: Antimycobacterial activity against Mycobacterium tuberculosis H37Rv ATCC 27294; type: functional
[6] = tested on: Mycobacterium tuberculosis; experiment: Antimycobacterial activity against Mycobacterium tuberculosis isolate CIBIN/UMF 15:19; type: functional
[7] = tested on: Mycobacterium tuberculosis; experiment: Antimycobacterial activity against Mycobacterium tuberculosis H37Rv by liquid microdilution method; type: functional
[8] = tested on: Mycobacterium tuberculosis; experiment: Antimycobacterial activity against Mycobacterium tuberculosis at 128 ug/mL; type: functional; details: read-out: GI
[9] = target: T1, 3-oxoacyl-[acyl-carrier-protein] synthase 1 (Mycobacterium tuberculosis, UniProt P9WQD9); experiment: Inhibition of Mycobacterium tuberculosis H37Rv Fab1
T1 sequence (P9WQD9 whole entry): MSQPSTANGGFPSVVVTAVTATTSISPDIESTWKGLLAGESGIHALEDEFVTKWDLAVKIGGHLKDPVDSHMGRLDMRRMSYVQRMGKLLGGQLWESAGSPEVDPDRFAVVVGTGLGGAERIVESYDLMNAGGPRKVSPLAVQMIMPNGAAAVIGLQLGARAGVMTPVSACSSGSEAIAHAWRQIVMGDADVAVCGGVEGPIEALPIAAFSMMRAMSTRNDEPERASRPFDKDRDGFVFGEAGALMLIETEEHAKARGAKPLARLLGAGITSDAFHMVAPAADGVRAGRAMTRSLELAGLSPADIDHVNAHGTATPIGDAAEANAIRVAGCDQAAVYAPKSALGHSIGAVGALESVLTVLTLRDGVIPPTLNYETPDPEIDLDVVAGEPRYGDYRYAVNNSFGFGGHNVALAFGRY

[10] = tested on: Mycobacterium tuberculosis; experiment: Antimycobacterial activity against Mycobacterium tuberculosis H37Ra; type: functional
[11] = Selectivity index, ratio of IC50 for african green monkey Vero cells to MIC for Mycobacterium tuberculosis H37Ra; type: functional
[12] = tested on: Mycobacterium tuberculosis; experiment: Antimycobacterial activity against Mycobacterium tuberculosis isolate no. 246; type: functional
[13] = tested on: Mycobacterium tuberculosis; experiment: Growth inhibition of Mycobacterium tuberculosis H37Rv at 6.25 ug/ml; type: functional; details: read-out: GI

CCC/C(C)=C/C=C(\C)C(=O)c1c(O)cc([C@H](C)CC/C=C/NC(=O)OC)oc1=O [MYXOPORIN A]
IC50 [1]: 1000 nM

C=C[C@@]1(C)[C@H](Cl)C[C@@H]2C(C)(C)c3cccc4[nH]c5c(c34)[C@@]2(O)[C@]1(C#N)[C@@]1(CO1)C5(C)C [FISCHAMBIGUINE B]
MIC [2]: 2 µM | IC50 (Vero): 128000 nM | Selectivity Index [3]: 64

COc1cc([C@H]2O[C@@]3(c4cc(OC)c5c(c4)OCO5)O[C@@]3(C)[C@@H]2C)cc2c1OCO2 [BEILSCHMIN D]
MIC [4]: 50 µg/mL (≈ 121 µM)

CCCOC(=O)[C@]12CC[C@@]3(C)CC[C@@](C)(O)C=C[C@H]3[C@@H]1CC[C@@H]2C(C)C
MIC [5]: 6.25 µg/mL (≈ 17.2 µM) | MIC [6]: 6.25 µg/mL (≈ 17.2 µM)

CC[C@@H](CO)NCCN[C@@H](CC)CO [ETHAMBUTOL]
MIC [4]: 6.2 µg/mL (≈ 30.3 µM)

CC[C@H](C)[C@@H](NC(=O)[C@@H](CCC(=O)O)NC(=O)[C@H](Cc1cnc[nH]1)NC(=O)[C@H](CC(C)C)NC(=O)[C@H](N)Cc1ccccc1)C(=O)N[C@H]1CCCCNC1=O [CALPINACTAM]
MIC [7]: 12.5 µg/mL (≈ 16.3 µM)

COc1cc([C@H]2O[C@@]3(c4cc(OC)c5c(c4)OCO5)O[C@@]3(C)[C@@H]2C)cc(OC)c1OC
MIC [4]: 30 µg/mL (≈ 69.7 µM)

C=C(C)[C@H]1CC[C@@H]2C(=O)O[C@H]3[C@@H]2O[C@@]2(O[C@@H]1C(=O)[C@@]1(C)O[C@@H]21)[C@@H]3C(=C)C [BIPINNAPTEROLIDE B]
inhibition of growth at 128 µg/mL [8]: 66%

CC(=O)O[C@H]1C[C@]2(C)[C@@H](C(C)C)CC[C@H]2[C@]23C[C@H]2[C@](C)(O)CC[C@]13C [AZORELLANOL]
MIC [5]: 12.5 µg/mL (≈ 35.9 µM) | MIC [6]: 12.5 µg/mL (≈ 35.9 µM)

CC(C)[C@H]1CC[C@H]2[C@@H]3C=C[C@](C)(O)CC[C@]3(C)CC[C@]12CO [MULINOL]
MIC [5]: 12.5 µg/mL (≈ 40.8 µM) | MIC [6]: 12.5 µg/mL (≈ 40.8 µM)

CCCCCCCc1cc(O)c(CCCCCC)c(=O)o1 [PSEUDOPYRONINES B]
MIC [2]: 0.78 µg/mL | IC50 [9]: 3800 nM

CC(C)=CCC/C(C)=C/CC/C(C)=C/CC/C=C(\C)CC/C=C(\C)CCC=C(C)C [SQUALENE]
MIC [4]: 28 µg/mL (≈ 68.2 µM)

COC1=CC(=O)c2c(cc(OC)c(C(C)OC(C)=O)c2O)C1=O (stereo unspecified)
MIC [10]: 0.39 µg/mL (≈ 1.22 µM) | IC50 (Vero): 0.33 µg/mL | Selectivity Index [11]: <1

CC(=O)OC[C@@]12CC[C@]3(C)[C@@H](C(C)C)CC[C@H]3[C@@]13C[C@H]3[C@](C)(O)CC2
MIC [5]: 12.5 µg/mL (≈ 35.9 µM) | MIC [6]: 12.5 µg/mL (≈ 35.9 µM)

CCCCCC(CC(=O)N1N=CCCC1C(=O)N[C@H]1COC(=O)[C@H]2CCCNN2C(=O)[C@H](C)NC(=O)[C@@H](CC(C)C)NC1=O)C(=O)O (stereo partly specified) [LYDIAMYCIN A]
MIC [2]: 12.5 µg/mL | MIC [12]: 25 µg/mL (≈ 37.7 µM)

C/C(=C\Cc1ccccc1)CC[C@@]1(O)C[C@H]2C[C@@H](C/C(C)=C/C/C=C/C/C(CC(=O)O)=C\C(=O)O2)O1 [RIPOSTATIN A]
IC50 [1]: 800 nM

COc1cc([C@H]2O[C@@]3(c4cc(OC)c(OC)c(OC)c4)O[C@@]3(C)[C@@H]2C)cc(OC)c1OC
MIC [4]: 40 µg/mL (≈ 89.6 µM)

C[C@@H]1CC[C@@H]2[C@@H](C)C[C@@H](C(=O)/C=C\O)[C@]2(O)C1=O [ELISABETHIN H]
inhibition of growth at 6.25 µg/mL [13]: 51%

C=C(CC[C@@H](C)[C@H]1CC[C@H]2[C@@H]3C(C=O)=C4C[C@@H](O)CC[C@]4(C)[C@H]3CC[C@]12C)C(C)C [PARGUESTEROL A]
MIC [2]: 7.8 µg/mL | IC50 (Vero): 52 µg/mL | Selectivity Index [3]: <7
